# Experimental data taken from patent US6846805B2, “Helical peptidomimetics” (The Brigham and Women's Hospital, Inc., priority 2002, dated 2005).
# Square brackets hold non-standard residues; d marks the D form. Peptide text beside a SMILES is read from it. * marks the point of attachment. dBpa = N[C@H](Cc1ccc(C(=O)c2ccccc2)cc1)C(=O)O; Boc = CC(C)(C)OC(=O)*; Aib = CC(C)(N)C(=O)O; Bn = c1ccc(C*)cc1
# Tested on: γ-secretase (production of total Aβ)
# Test: Inhibition of total Aβ production in APP-transfected cells (sandwich ELISA)
# Type: cell-based
# Conditions: cell-based assay, CHO cells stably transfected with human APP; read-out: IC50 (concentration of compound that reduced production of total Aβ by 50%)
# Excerpt: Based on the helical model for the APP transmembrane domain, we have identified short peptides designed to adopt a similar conformation that block γ-secretase activity. Judicious replacement of selected residues of short APP-derived peptides with 2-aminoisobutyric acid (Aib), a known helix-inducing amino acid (19, 20), provided peptides that, in principle, mimic the γ-secretase cleavage site on one face of the helix, with Aib residues on the other face. We have identified Aib-containing peptides (see below) that inhibit Aβ production in APP-transfected cells with IC50's as low as 2 μM. […] We also discovered that an Aib decapeptide that is not based on the APP sequence (VIIb in ref 19: […] The crystal structure of this compound has been determined, and the peptide is fully helical (19). […] These peptides likewise assume a helical conformation, although of the opposite sense (left-handed instead of right-handed). Thus, the invention advantageously provides helical peptidomimetics having improved metabolic stability. […] IC50 is the concentration of compound that reduced production of total Aβ by 50% in a cell-based assay using CHO cells stably transfected with human APP. […] The 15 D-peptides, varied in first position, are tested for their ability to inhibit total Aβ production in APP-transfected cell lines using a sensitive, quantitative, and convenient sandwich ELISA as we have previously described (12, 13). The compound best able to reduce Aβ production is then used as a starting point for the synthesis of a second round of peptide synthesis, 15 compounds each defined at the second position and containing the optimal first residue. In this iterative fashion, the optimal residue for each position is determined.
row,Structure (SMILES),IC50 [µM]
1,"CC[C@H](C)[C@H](NC(=O)OC(C)(C)C)C(=O)N[C@@H](C)C(=O)N[C@H](C(=O)NC(C)(C)C(=O)N[C@H](C(=O)N[C@H](C(=O)NC(C)(C)C(=O)OC)C(C)C)[C@@H](C)CC)[C@@H](C)OCc1ccccc1 [Compound 2, Boc-Ile-Ala-Thr(OBz)-Aib-Ile-Val-Aib-OMe] (Boc-IAT(Bn)[Aib]IV[Aib]-OMe)",15
2,"CC[C@H](C)[C@H](NC(=O)C(C)(C)NC(=O)OC(C)(C)C)C(=O)N[C@@H](C)C(=O)N[C@H](C(=O)NC(C)(C)C(=O)N[C@H](C(=O)N[C@H](C(=O)NC(C)(C)C(=O)OC)C(C)C)[C@@H](C)CC)[C@@H](C)OCc1ccccc1 [Compound 3, Boc-Aib-Ile-Ala-Thr(OBz)-Aib-Ile-Val-Aib-OMe] (Boc-[Aib]IAT(Bn)[Aib]IV[Aib]-OMe)",10
3,"CC[C@H](C)[C@H](NC(=O)[C@@H](NC(=O)[C@@H](NC(=O)OC(C)(C)C)C(C)C)C(C)C)C(=O)NC(C)(C)C(=O)N[C@H](C(=O)N[C@H](C(=O)NC(C)(C)C(=O)OC)C(C)C)[C@@H](C)OCc1ccccc1 [Compound 7, Boc-Val-Val-Ile-Aib-Thr(OBz)-Val-Aib-OMe] (Boc-VVI[Aib]T(Bn)V[Aib]-OMe)",6
4,"CC[C@H](C)[C@H](NC(=O)[C@@H](NC(=O)[C@@H](NC(=O)C(C)(C)NC(=O)OC(C)(C)C)C(C)C)C(C)C)C(=O)NC(C)(C)C(=O)N[C@H](C(=O)N[C@H](C(=O)NC(C)(C)C(=O)OC)C(C)C)[C@@H](C)OCc1ccccc1 [Compound 8, Boc-Aib-Val-Val-Ile-Aib-Thr(OBz)-Val-Aib-OMe] (Boc-[Aib]VVI[Aib]T(Bn)V[Aib]-OMe)",6
5,"CC[C@H](C)[C@H](NC(=O)[C@@H](NC(=O)[C@@H](NC(=O)C(C)(C)NC(=O)CNC(=O)OC(C)(C)C)C(C)C)C(C)C)C(=O)NC(C)(C)C(=O)N[C@H](C(=O)N[C@H](C(=O)NC(C)(C)C(=O)OC)C(C)C)[C@@H](C)OCc1ccccc1 [Compound 9, Boc-Gly-Aib-Val-Val-Ile-Aib-Thr(OBz)-Val-Aib-OMe] (Boc-G[Aib]VVI[Aib]T(Bn)V[Aib]-OMe)",3
6,"COC(=O)C(C)(C)NC(=O)[C@H](CC(C)C)NC(=O)[C@H](C)NC(=O)C(C)(C)NC(=O)[C@H](CC(C)C)NC(=O)[C@H](C)NC(=O)C(C)(C)NC(=O)[C@H](CC(C)C)NC(=O)[C@H](C)NC(=O)C(C)(C)NC(=O)OC(C)(C)C [VIIb, Boc-Aib-Ala-Leu-Aib-Ala-Leu-Aib-Ala-Leu-Aib-O-methylester, reference compound] (Boc-[Aib]AL[Aib]AL[Aib]AL[Aib]-OMe)",2

# Other lines, results leading:
row,IC50 [µM],Structure (SMILES)
1,25,"CC[C@H](C)[C@H](NC(=O)C(C)(C)NC(=O)[C@@H](NC(=O)[C@H](C)NC(=O)OC(C)(C)C)[C@@H](C)OCc1ccccc1)C(=O)N[C@H](C(=O)NC(C)(C)C(=O)OC)C(C)C [Compound 1, Boc-Ala-Thr(OBz)-Aib-Ile-Val-Aib-OMe] (Boc-AT(Bn)[Aib]IV[Aib]-OMe)"
2,12,"CC[C@H](C)[C@H](NC(=O)[C@@H](NC(=O)OC(C)(C)C)C(C)C)C(=O)NC(C)(C)C(=O)N[C@H](C(=O)N[C@H](C(=O)NC(C)(C)C(=O)OC)C(C)C)[C@@H](C)OCc1ccccc1 [Compound 6, Boc-Val-Ile-Aib-Thr(OBz)-Val-Aib-OMe] (Boc-VI[Aib]T(Bn)V[Aib]-OMe)"
3,5,"CC[C@H](C)[C@H](NC(=O)C(C)(C)NC(=O)[C@@H](NC(=O)CNC(=O)OC(C)(C)C)C(C)C)C(=O)N[C@@H](C)C(=O)N[C@H](C(=O)NC(C)(C)C(=O)N[C@H](C(=O)N[C@H](C(=O)NC(C)(C)C(=O)OC)C(C)C)[C@@H](C)CC)[C@@H](C)OCc1ccccc1 [Compound 5, Boc-Gly-Val-Aib-Ile-Ala-Thr(OBz)-Aib-Ile-Val-Aib-OMe] (Boc-GV[Aib]IAT(Bn)[Aib]IV[Aib]-OMe)"
4,3,"CC[C@H](C)[C@H](NC(=O)[C@@H](NC(=O)[C@@H](NC(=O)C(C)(C)NC(=O)CNC(=O)[C@@H](NC(=O)OC(C)(C)C)C(C)C)C(C)C)C(C)C)C(=O)NC(C)(C)C(=O)N[C@H](C(=O)N[C@H](C(=O)NC(C)(C)C(=O)OC)C(C)C)[C@@H](C)OCc1ccccc1 [Compound 10, Boc-Val-Gly-Aib-Val-Val-Ile-Aib-Thr(OBz)-Val-Aib-OMe] (Boc-VG[Aib]VVI[Aib]T(Bn)V[Aib]-OMe)"
5,2,"CC[C@H](C)[C@H](NC(=O)C(C)(C)NC(=O)[C@@H](NC(=O)OC(C)(C)C)C(C)C)C(=O)N[C@@H](C)C(=O)N[C@H](C(=O)NC(C)(C)C(=O)N[C@H](C(=O)N[C@H](C(=O)NC(C)(C)C(=O)OC)C(C)C)[C@@H](C)CC)[C@@H](C)OCc1ccccc1 [Compound 4, Boc-Val-Aib-Ile-Ala-Thr(OBz)-Aib-Ile-Val-Aib-OMe] (Boc-V[Aib]IAT(Bn)[Aib]IV[Aib]-OMe)"

# Same assay, conditions: same cell-based assay, CHO cells stably transfected with human APP; read-out: IC50 (reduction of total Aβ production)
row,Structure (SMILES),IC50 [µM]
1,"COC(=O)C(C)(C)NC(=O)[C@H](NC(=O)[C@H](NC(=O)C(C)(C)NC(=O)[C@@H](Cc1ccc(C(=O)c2ccccc2)cc1)NC(=O)[C@H](NC(=O)[C@H](NC(=O)C(C)(C)NC(=O)CNC(=O)[C@H](NC(=O)OC(C)(C)C)C(C)C)C(C)C)C(C)C)[C@H](C)OCc1ccccc1)C(C)C [SEQ ID NO:11, Boc-D-Val-Gly-Aib-D-Val-D-Val-D-BPA-Aib-D-Thr(OBz)-D-Val-Aib-OMe] (Boc-[dV]G[Aib][dV][dV][dBpa][Aib][dT](Bn)[dV][Aib]-OMe)",0.1
